Test results taken from patent US20220324835A1 (Nurix Therapeutics, Inc., priority 2018, published 2022).
Where two headings read alike, the source gives them in different places.

How the values were obtained:
[1] = tested on: T-cell; assay: IL-2 secretion from T-cells co-stimulated with anti-CD3 and anti-CD28 antibody (Biological Example 2); format: cell-based, human; details: Homo sapiens, T-cell, fold change over baseline, primary human total T-cells, read-out: IL-2 secretion Anti-CD3/Anti-CD28 stimulation; for fold induction at 0.3 µM: 0.3 μM Cbl-b inhibitor; for fold induction at 1 µM: 1 μM Cbl-b inhibitor; for fold induction at 4 µM: 4 μM Cbl-b inhibitor
In short: (§1)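 No assay protocol given; T-cells stimulated with anti-CD3 alone or anti-CD3 plus anti-CD28, with or without Cbl-b inhibitor. Activation read as IL-2 secretion or CD25 surface staining, expressed as fold over baseline from uninhibited cells […].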

[2] = tested on: T-cell; assay: CD25 cell surface staining on T-cells co-stimulated with anti-CD3 and anti-CD28 antibody (Biological Example 2); format: cell-based, human; details: Homo sapiens, T-cell, fold change over baseline, primary human total T-cells, read-out: CD25 staining Anti-CD3/Anti-CD28 stimulation; for fold induction at 0.3 µM: 0.3 μM Cbl-b inhibitor; for fold induction at 1 µM: 1 μM Cbl-b inhibitor; for fold induction at 4 µM: 4 μM Cbl-b inhibitor
In short: as §1

[3] = tested on: T-cell; assay: CD25 cell surface staining on T-cells stimulated with anti-CD3 antibody alone (Biological Example 2); format: cell-based, human; details: T-cell, fold change over baseline, primary human total T-cells, read-out: CD25 staining Anti-CD3 stimulation; for fold induction at 1 µM: 1 μM Cbl-b inhibitor; for fold induction at 8 µM: 8 μM Cbl-b inhibitor
[4] = molecular target: Cbl-b (Homo sapiens, UniProt Q13191); assay: Cbl-b activity assay (Cbl-b inhibition assay), TR-FRET of Cbl-b interaction with UbcH5B-Ub; format: biochemical
In short: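 TR-FRET readout of Cbl-b binding to Bodipy-fluorescein N-terminally labeled Ub conjugated to UbcH5B C85K, measured with compound present. After compound incubation, 60 nM Src kinase with 1 mM ATP and 5 mM MgCl2 (final) was added for 1.5 h, then a further 1 h incubation; asterisked values used 50 mM NaCl buffer and 30 nM Src.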

[5] = assay buffer with 100 mM NaCl, 60 nM Src kinase, read-out: Cbl-b activity IC50

Cbl-b, sequence (Q13191 36-427): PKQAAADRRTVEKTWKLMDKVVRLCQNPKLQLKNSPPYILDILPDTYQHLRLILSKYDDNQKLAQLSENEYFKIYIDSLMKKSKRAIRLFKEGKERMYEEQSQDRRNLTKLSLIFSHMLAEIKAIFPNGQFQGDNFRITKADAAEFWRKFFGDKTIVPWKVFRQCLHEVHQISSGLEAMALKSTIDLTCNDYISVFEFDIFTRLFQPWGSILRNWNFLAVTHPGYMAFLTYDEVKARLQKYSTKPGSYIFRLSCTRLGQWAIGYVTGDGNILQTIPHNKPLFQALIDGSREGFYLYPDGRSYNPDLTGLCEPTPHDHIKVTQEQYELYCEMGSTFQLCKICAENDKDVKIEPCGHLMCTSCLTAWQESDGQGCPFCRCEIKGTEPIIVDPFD

## Cc1[nH]cnc1CC(C)c1cccc(N2Cc3c(cccc3C(F)(F)F)C2=O)c1 (stereo not shown) [Compound 272, 2-[3-[1-(5-methyl-1H-imidazol-4-yl)propan-2-yl]phenyl]-4-(trifluoromethyl)isoindolin-1-one]
[1]
  fold induction at 0.3 µM: < 1
  fold induction at 1 µM: < 1
  fold induction at 4 µM: < 1
[2]
  fold induction at 0.3 µM: < 1
  fold induction at 1 µM: < 1
  fold induction at 4 µM: 1.01 to 1.3
[3]
  fold induction at 1 µM: < 0.6
  fold induction at 8 µM: < 0.6
[4]; [5]
  IC50: 0.301 to 1 µM

## Cc1ccc(C(=O)Nc2cccc(C(C)C(F)(F)c3nncn3C)c2)nc1C1CC1 (stereo not shown) [Compound 286, 6-cyclopropyl-N-(3-(1,1-difluoro-1-(4-methyl-4H-1,2,4-triazol-3-yl)propan-2-yl)phenyl)-5-methylpicolinamide]
[1]
  fold induction at 0.3 µM: 1.01 to 2.5
  fold induction at 1 µM: 1.01 to 2.5
  fold induction at 4 µM: 2.51 to 5
[2]
  fold induction at 0.3 µM: < 1
  fold induction at 1 µM: < 1
  fold induction at 4 µM: 1.01 to 1.3
[3]
  fold induction at 1 µM: 0.801 to 1
  fold induction at 8 µM: > 1
[4]; [5]
  IC50: 0.1 to 0.3 µM

## C[C@H](Cc1nncn1C)c1cccc(NC(=O)c2cc(C(=O)N3C[C@@H](O)C[C@H]3C)ccn2)c1 [Compound 224, 4-((2R,4S)-4-hydroxy-2-methylpyrrolidine-1-carbonyl)-N-(3-((R)-1-(4-methyl-4H-1,2,4-triazol-3-yl)propan-2-yl)phenyl)picolinamide]
[1]
  fold induction at 0.3 µM: < 1
  fold induction at 1 µM: < 1
  fold induction at 4 µM: < 1
[2]
  fold induction at 0.3 µM: 1.01 to 1.3
  fold induction at 1 µM: 1.01 to 1.3
  fold induction at 4 µM: 1.51 to 1.75
[3]
  fold induction at 1 µM: < 0.6
  fold induction at 8 µM: < 0.6
[4]; [5]
  IC50: 0.1 to 0.3 µM

## C[C@H](Cc1nnc[nH]1)c1cccc(N2Cc3c(cccc3C(F)(F)F)C2=O)c1 [Compound 262, (R)-2-(3-(1-(4H-1,2,4-triazol-3-yl)propan-2-yl)phenyl)-4-(trifluoromethyl)isoindolin-1-one]
[1]
  fold induction at 0.3 µM: < 1
  fold induction at 1 µM: < 1
  fold induction at 4 µM: 1.01 to 2.5
[2]
  fold induction at 0.3 µM: 1.01 to 1.3
  fold induction at 1 µM: 1.31 to 1.5
  fold induction at 4 µM: 1.31 to 1.5
[3]
  fold induction at 1 µM: < 0.6
  fold induction at 8 µM: < 0.6
[4]; [5]
  IC50: 0.301 to 1 µM

## C[C@H](Cc1nncn1C)c1cccc(NC(=O)c2cc(C(=O)N3CC(O)C(F)(F)C3)ccn2)c1 (stereo partly drawn) [Compound 243, 4-(3,3-difluoro-4-hydroxypyrrolidine-1-carbonyl)-N-[3-[(2R)-1-(4-methyl-4H-1,2,4-triazol-3-yl)propan-2-yl]phenyl]pyridine-2-carboxamide]
[1]
  fold induction at 0.3 µM: < 1
  fold induction at 1 µM: < 1
  fold induction at 4 µM: 2.51 to 5
[2]
  fold induction at 0.3 µM: < 1
  fold induction at 1 µM: < 1
  fold induction at 4 µM: 1.31 to 1.5
[3]
  fold induction at 1 µM: 0.601 to 0.8
  fold induction at 8 µM: 0.801 to 1
[4]; [5]
  IC50: 0.301 to 1 µM

## C[C@H](Sc1nncn1C)c1cccc(NC(=O)c2cc3c(Cl)cccc3[nH]2)c1 [Compound 78, 4-chloro-A-[3-[(LS)-1-[(4-methyl-1,2,4-triazol-3-yl)sulfanyl]ethyl]phenyl]-1H-indole-2-carboxamide]
[1]
  fold induction at 0.3 µM: 1.01 to 2.5
  fold induction at 1 µM: 1.01 to 2.5
  fold induction at 4 µM: 2.51 to 5
[2]
  fold induction at 0.3 µM: < 1
  fold induction at 1 µM: 1.01 to 1.3
  fold induction at 4 µM: 1.01 to 1.3
[3]
  fold induction at 1 µM: 0.601 to 0.8
  fold induction at 8 µM: 0.801 to 1
[4]; [5]
  IC50: 0.1 to 0.3 µM

## C[C@H](Cc1nncn1C)c1cccc(NC(=O)c2cc(O[C@H]3CC[C@@H](O)C3)ccn2)c1 [Compound 206, 4-((1S,3R)-3-hydroxycyclopentyloxy)-N-(3-((R)-1-(4-methyl-4H-1,2,4-triazol-3-yl)propan-2-yl)phenyl)picolinamide]
[1]
  fold induction at 0.3 µM: 1.01 to 2.5
  fold induction at 1 µM: 1.01 to 2.5
  fold induction at 4 µM: 2.51 to 5
[2]
  fold induction at 0.3 µM: 1.01 to 1.3
  fold induction at 1 µM: 1.01 to 1.3
  fold induction at 4 µM: 1.01 to 1.3
[3]
  fold induction at 1 µM: 0.801 to 1
  fold induction at 8 µM: 0.801 to 1
[4]; [5]
  IC50: 0.301 to 1 µM

## Cn1cnnc1CC(C)(F)c1cccc(N2Cc3c(cccc3C(F)(F)F)C2=O)c1 (racemic) [Compound 298, 2-(3-(2-fluoro-1-(4-methyl-4H-1,2,4-triazol-3-yl)propan-2-yl)phenyl)-4-(trifluoromethyl)isoindolin-1-one]
[1]
  fold induction at 0.3 µM: 5 to 7.5
  fold induction at 1 µM: 5 to 7.5
  fold induction at 4 µM: > 7.5
[2]
  fold induction at 0.3 µM: < 1
  fold induction at 1 µM: 1.01 to 1.3
  fold induction at 4 µM: 1.01 to 1.3
[3]
  fold induction at 1 µM: 0.601 to 0.8
  fold induction at 8 µM: 0.601 to 0.8
[4]; [5]
  IC50: 0.1 to 0.3 µM

## COc1nc(C(=O)Nc2cccc([C@H](C)Sc3nncn3C)c2)cc2ccccc12 [Compound 62, (S)-1-methoxy-N-(3-(1-((4-methyl-4H-1,2,4-triazol-3-yl)thio)ethyl)phenyl)isoquinoline-3-carboxamide]
[1]
  fold induction at 0.3 µM: 2.51 to 5
  fold induction at 1 µM: 5 to 7.5
  fold induction at 4 µM: > 7.5
[2]
  fold induction at 0.3 µM: < 1
  fold induction at 1 µM: 1.01 to 1.3
  fold induction at 4 µM: 1.01 to 1.3
[3]
  fold induction at 1 µM: < 0.6
  fold induction at 8 µM: 0.801 to 1
[4]; [5]
  IC50: 0.1 to 0.3 µM

## Cc1ccc(C(=O)Nc2cccc([C@H](C)Sc3nncn3C)c2)nc1C(F)(F)F [Compound 61, (S)-5-methyl-N-(3-(1-((4-methyl-4H-1,2,4-triazol-3-yl)thio)ethyl)phenyl)-6-(trifluoromethyl)picolinamide]
[1]
  fold induction at 0.3 µM: < 1
  fold induction at 1 µM: < 1
  fold induction at 4 µM: 1.01 to 2.5
[2]
  fold induction at 0.3 µM: < 1
  fold induction at 1 µM: 1.01 to 1.3
  fold induction at 4 µM: 1.01 to 1.3
[3]
  fold induction at 1 µM: 0.601 to 0.8
  fold induction at 8 µM: > 1
[4]; [5]
  IC50: 0.1 to 0.3 µM

## C[C@H](Sc1nncn1C)c1cccc(NC(=O)c2cc(C(C)(C)O)c(Cl)cn2)c1 [Compound 55, (S)-5-chloro-4-(2-hydroxypropan-2-yl)-N-(3-(1-((4-methyl-4H-1,2,4-triazol-3-yl)thio)ethyl)phenyl)picolinamide]
[1]
  fold induction at 0.3 µM: 1.01 to 2.5
  fold induction at 1 µM: 1.01 to 2.5
  fold induction at 4 µM: 1.01 to 2.5
[2]
  fold induction at 0.3 µM: 1.01 to 1.3
  fold induction at 1 µM: 1.01 to 1.3
  fold induction at 4 µM: 1.01 to 1.3
[3]
  fold induction at 1 µM: < 0.6
  fold induction at 8 µM: 0.601 to 0.8
[4]; [5]
  IC50: 0.301 to 1 µM

## CC(Sc1nncn1C)c1cc(F)cc(N2Cc3c(cccc3C(F)(F)F)C2=O)c1 [Compound 168, 2-[3-fluoro-5-[(1R)-1-[(4-methyl-1,2,4-triazol-3-yl)sulfanyl]ethyl]phenyl]-4-(trifluoromethyl)isoindolin-1-one]
[1]
  fold induction at 0.3 µM: 1.01 to 2.5
  fold induction at 1 µM: 1.01 to 2.5
  fold induction at 4 µM: 1.01 to 2.5
[2]
  fold induction at 0.3 µM: < 1
  fold induction at 1 µM: < 1
  fold induction at 4 µM: 1.01 to 1.3
[3]
  fold induction at 1 µM: 0.801 to 1
  fold induction at 8 µM: 0.601 to 0.8
[4]; [5]
  IC50: 0.301 to 1 µM

## Cn1cnnc1C(F)(F)C(C)(F)c1cccc(N2Cc3c(cccc3C(F)(F)F)C2=O)c1 (racemic) [Compound 296, 2-(3-(1,1,2-trifluoro-1-(4-methyl-4H-1,2,4-triazol-3-yl)propan-2-yl)phenyl)-4-(trifluoromethyl)isoindolin-1-one]
[1]
  fold induction at 0.3 µM: < 1
  fold induction at 1 µM: < 1
  fold induction at 4 µM: 1.01 to 2.5
[2]
  fold induction at 0.3 µM: 1.01 to 1.3
  fold induction at 1 µM: 1.01 to 1.3
  fold induction at 4 µM: 1.01 to 1.3
[3]
  fold induction at 1 µM: 0.601 to 0.8
  fold induction at 8 µM: 0.601 to 0.8
[4]; [5]
  IC50: 0.301 to 1 µM

## C[C@H](Sc1nncn1C)c1cccc(NC(=O)c2cc(Cl)cc(C(F)(F)F)n2)c1 [Compound 68, (S)-4-chloro-N-(3-(1-((4-methyl-4H-1,2,4-triazol-3-yl)thio)ethyl)phenyl)-6-(trifluoromethyl)picolinamide]
[1]
  fold induction at 0.3 µM: 1.01 to 2.5
  fold induction at 1 µM: 1.01 to 2.5
  fold induction at 4 µM: 1.01 to 2.5
[2]
  fold induction at 0.3 µM: 1.01 to 1.3
  fold induction at 1 µM: 1.01 to 1.3
  fold induction at 4 µM: 1.01 to 1.3
[3]
  fold induction at 1 µM: 0.601 to 0.8
  fold induction at 8 µM: 0.801 to 1
[4]; [5]
  IC50: 0.1 to 0.3 µM

## Cc1ccc(C(=O)Nc2cccc([C@H](C)Sc3nncn3C)c2)nc1C [Compound 35, (S)-5,6-Dimethyl-N-(3-(1-((4-methyl-4H-1,2,4-triazol-3-yl)thio)ethyl)phenyl)picolinamide]
[1]
  fold induction at 0.3 µM: 1.01 to 2.5
  fold induction at 1 µM: 2.51 to 5
  fold induction at 4 µM: 2.51 to 5
[2]
  fold induction at 0.3 µM: < 1
  fold induction at 1 µM: 1.01 to 1.3
  fold induction at 4 µM: 1.31 to 1.5
[3]
  fold induction at 1 µM: < 0.6
  fold induction at 8 µM: 0.601 to 0.8
[4]; * assay buffer containing 50 mM NaCl instead of 100 mM NaCl and 30 nM Src kinase instead of 60 nM, read-out: Cbl-b activity IC50 (μM)*
  IC50: 0.301 to 1 µM
[4]; [5]
  IC50: 0.301 to 1 µM
